Data: US20250304549A1, “HYDROXYAMIDE DERIVATIVE AND USE THEREOF” (SICHUAN HUIYU PHARMACEUTICAL CO., LTD., priority 2022, published 2025)
Counter-ions that a name gives are not always drawn.

Tests used:
pan-HDAC = experiment: In vitro enzyme inhibition assay - HDAC (HDAC-Glo I/II), pan-HDAC; format: biochemical
How it was run: (§1)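 Inhibition was measured with the HDAC-Glo I/II luminescent assay, testing compound as an 8-point, 5-fold dilution series from a 1 mM DMSO stock. Luminescence (RLU) was normalized to no-inhibitor and no-enzyme controls, and IC50 was derived by four-parameter variable-slope fitting.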

LSD1 = LSD1 (Homo sapiens (Human), UniProt O60341); experiment: In vitro enzyme inhibition assay - LSD1 (HTRF); format: biochemical
NCI-H69 cells = experiment: In vitro cell inhibition assay - NCI-H69 cell proliferation (CellTiter-Glo); format: cell-based; settings: Homo sapiens, NCI-H69, H69 small cell lung cancer cell proliferation
How it was run: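 CellTiter-Glo luminescence measured viability after a 7-day, 37° C. exposure of NCI-H69 cells (1×10^3/well) to an 8-point, 5-fold dilution series in RPMI-640/20% FBS. Inhibition was normalised to untreated and cell-free wells and IC50 derived by curve fitting.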

NCI-H526 cells = experiment: In vitro cell inhibition assay - NCI-H526 cell proliferation (CellTiter-Glo); format: cell-based; settings: Homo sapiens, NCI-H526, 120 h, H526 small cell lung cancer cell proliferation, 5 days
How it was run: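 NCI-H526 cells plated at 1×10^3 per well overnight, then treated with 8 concentrations (5-fold dilutions) in RPMI-640 with 10% FBS for 5 days at 37° C., 5% CO2. Viable cells quantified by CellTiter-Glo luminescence; IC50 fitted from inhibition rates relative to no-inhibitor and no-cell controls.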

NCI-H1417 cells = experiment: In vitro cell inhibition assay - H1417 cell proliferation (CellTiter-Glo); format: cell-based; settings: Homo sapiens, NCI-H1417, H1417 small cell lung cancer cell proliferation
How it was run: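 Cells exposed to 8 compound concentrations (5-fold dilutions) in BEGM with 10% FBS for 7 days at 37° C., 5% CO2. Viable cells measured by CellTiter-Glo luminescence; inhibition versus no-inhibitor and no-cell controls, IC50 fitted.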

HDAC1 = HDAC1 (Homo sapiens (Human), UniProt Q13547); experiment: In vitro enzyme inhibition assay - HDAC (HDAC-Glo I/II), HDAC1; format: biochemical; settings: read-out: HDAC IC50 (nM) HDAC 1
Sequence of HDAC1 (Q13547 whole entry): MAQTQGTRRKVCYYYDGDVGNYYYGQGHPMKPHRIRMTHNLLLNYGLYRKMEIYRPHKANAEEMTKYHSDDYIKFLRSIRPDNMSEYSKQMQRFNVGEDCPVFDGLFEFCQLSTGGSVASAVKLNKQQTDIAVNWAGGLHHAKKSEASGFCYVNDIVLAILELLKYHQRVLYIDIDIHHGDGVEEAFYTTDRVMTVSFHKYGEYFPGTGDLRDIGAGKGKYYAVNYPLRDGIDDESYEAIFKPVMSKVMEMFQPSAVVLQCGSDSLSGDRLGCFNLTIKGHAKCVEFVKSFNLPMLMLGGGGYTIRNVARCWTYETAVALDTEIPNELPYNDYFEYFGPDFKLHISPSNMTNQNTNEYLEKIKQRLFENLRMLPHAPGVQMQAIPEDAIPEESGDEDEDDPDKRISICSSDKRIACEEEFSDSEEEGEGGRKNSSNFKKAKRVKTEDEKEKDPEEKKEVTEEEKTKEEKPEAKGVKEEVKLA
Description: 2. In Vitro Enzyme Inhibition Assay—HDAC
The effect of the compound on the enzymatic activity of pan-HDAC and two isoforms (HDAC1 and HDAC8) was examined using the HDAC-Glo I/II Assay and Screening System assay to assess the level of inhibition of HDAC protease activity and selectivity in each isoform. The proteins and detection reagents were from the HDAC-Glo™ I/II Assay and Screening System (Promega). A 1 mM stock solution of the compound was prepared in DMSO and diluted in a 5-fold gradient to create a series of 8 concentrations, and a specific volume of the highest concentration was diluted 25 times with HDAC Buffer to obtain 4× working solution of the compound. […] The 384-well plate was then read on a multifunctional microplate reader, with the Luminescence channel selected to record Luminescence values (RLU). The inhibition rate was calculated using the following formula: […]
Note: ‘Negative’ refers to the group without the inhibitor; ‘Blank’ refers to the group without the enzyme.
The IC50 value was calculated by fitting the inhibition rate by GraphPad Prism software, employing log (inhibitor) vs. response-Variable Slope (four parameters) model.

HDAC8 = HDAC8 (Homo sapiens (Human), UniProt Q9BY41); experiment: In vitro enzyme inhibition assay - HDAC (HDAC-Glo I/II), HDAC8; format: biochemical; settings: read-out: HDAC IC50 (nM) HDAC 8
Sequence of HDAC8 (Q9BY41 whole entry): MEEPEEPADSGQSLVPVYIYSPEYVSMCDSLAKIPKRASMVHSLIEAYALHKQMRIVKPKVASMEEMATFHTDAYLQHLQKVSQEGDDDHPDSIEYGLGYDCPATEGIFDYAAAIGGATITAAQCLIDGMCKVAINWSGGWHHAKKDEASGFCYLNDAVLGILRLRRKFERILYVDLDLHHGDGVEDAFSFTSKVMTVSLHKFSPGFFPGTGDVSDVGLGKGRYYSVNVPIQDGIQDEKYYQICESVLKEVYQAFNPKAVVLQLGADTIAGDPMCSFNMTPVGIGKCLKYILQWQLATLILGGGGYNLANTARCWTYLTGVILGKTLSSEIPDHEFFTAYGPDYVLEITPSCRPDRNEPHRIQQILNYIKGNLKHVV
How it was run: as §1

Compound	IC50 (pan-HDAC) [nM]	IC50 (LSD1) [nM]	IC50 (NCI-H69 cells) [nM]	IC50 (NCI-H526 cells) [nM]	IC50 (NCI-H1417 cells) [nM]	IC50 (HDAC1) [nM]	IC50 (HDAC8) [nM]
CC(C)(O)COc1ccc(-c2cnc(N3CCC(NCc4ccc(CCC(=O)NO)cc4)CC3)c(C#N)c2-c2ccc(C#N)c(F)c2)cc1O [Example 188, 3-(4-(((1-(3-Cyano-4-(4-cyano-3-fluorophenyl)-5-(3-hydroxy-4-(2-hydroxy-2-methylpropoxy)phenyl)pyridin-2-yl)piperidin-4-yl)amino)methyl)phenyl)-N-hydroxypropanamide formate]	5.07	0.3	29.7	80.4	1.74	3.06	198
CC(C)(O)COc1ccc(-c2cnc(N3CCC(NCc4ccc(/C=C/C(=O)NO)c(C#N)c4)CC3)c(C#N)c2-c2ccc(C#N)c(F)c2)cc1O [Example 189, (E)-3-(2-Cyano-4-((1-(3-cyano-4-(4-cyano-3-fluorophenyl)-5-(3-hydroxy-4-(2-hydroxy-2-methylpropoxy)phenyl)pyridin-2-yl)piperidin-4-yl)amino)methyl) phenyl)-N-hydroxyacrylamide formate]	7.8	4.11	39.2	27.8	6.31	13.4	130
COc1ccc(-c2cnc(N3CCC(NCc4ccc(CCC(=O)NO)nc4)CC3)c(C#N)c2-c2ccc(C#N)c(F)c2)cc1O [Example 191, 3-(5-(((1-(3-Cyano-4-(4-cyano-3-fluorophenyl)-5-(3-hydroxy-4-methoxyphenyl)pyridin-2-yl)piperidin-4-yl)amino)methyl)pyridin-2-yl)-N-hydroxypropanamide formate]	2.17	2.24	24.6	25.9	3.38	0.54	37.5
CC(C)(O)COc1ccc(-c2cnc(N3CCC(NCc4ccc(OCC(=O)NO)cc4)CC3)c(C#N)c2-c2ccc(C#N)c(F)c2)cc1O [Example 192, 2-(4-(((1-(3-cyano-4-(4-cyano-3-fluorophenyl)-5-(3-hydroxy-4-(2-hydroxy-2-methylpropoxy)phenyl)pyridin-2-yl)piperidin-4-yl)amino)methyl)phenoxy)-N-hydroxyacetamide formate]	2.75	0.45	28	82.1	1.98	1.49	64.9
CC(C)(O)COc1ccc(-c2cnc(N3CCC(NCc4ccc(/C=C(\F)C(=O)NO)cc4)CC3)c(C#N)c2-c2ccc(C#N)c(F)c2)cc1O [Example 198, (Z)-3-(4-(((1-(3-Cyano-4-(4-cyano-3-fluorophenyl)-5-(3-hydroxy-4-(2-hydroxy-2-methylpropoxy)phenyl)pyridin-2-yl)piperidin-4-yl)amino)methyl)phenyl)-2-fluoro-N-hydroxyacrylamide formate]	6.35	0.4	23.7	21.2	0.63	4.85	67.2
CC(C)(O)COc1ccc(-c2cnc(N3CCC(NCc4ccc(/C=C/C(=O)NO)nc4)CC3)c(C#N)c2-c2ccc(C#N)c(F)c2)cc1O [Example 199, (E)-3-(5-((1-(3-Cyano-4-(4-cyano-3-fluorophenyl)-5-(3-hydroxy-4-(2-hydroxy-2-methylpropoxy)phenyl)pyridin-2-yl)piperidin-4-yl)amino)methyl) pyridin-2-yl)-N-hydroxyacrylamide formate]	2.77	0.54	9.24	4.05	2.78	1.92	33.9
COc1ccc(-c2cnc(N3CCC(NCc4ccc(/C=C/C(=O)NO)c(F)c4)CC3)c(C#N)c2-c2ccc(C#N)c(F)c2)cc1O [Example 200, (E)-3-(4-(((1-(3-Cyano-4-(4-cyano-3-fluorophenyl)-5-(3-hydroxy-4-methoxyphenyl)pyridin-2-yl)piperidin-4-yl)amino)methyl)-2-fluorophenyl)-N-hydroxyacrylamide formate]	4.18	0.45	5.16	4.1	2.27	2.95	127
COc1ccc(-c2cnc(N3CCC(NCc4ccc(CCC(=O)NO)c(F)c4)CC3)c(C#N)c2-c2ccc(C#N)c(F)c2)cc1O [Example 201, 3-(4-((1-(3-Cyano-4-(4-cyano-3-fluorophenyl)-5-(3-hydroxy-4-methoxyphenyl)pyridin-2-yl)piperidin-4-yl)amino)methyl)-2-fluorophenyl)-N-hydroxypropanamide formate]	7.71	0.22	56.4	20.5	3.33	4.81	438
COc1ccc(-c2cnc(N3CCC(NCc4cnc(/C=C/C(=O)NO)nc4)CC3)c(C)c2-c2ccc(C#N)c(F)c2)cc1O [Example 202, (E)-3-(5-(((1-(4-(4-Cyano-3-fluorophenyl)-5-(3-hydroxy-4-methoxyphenyl)-3-methylpyridin-2-yl)piperidin-4-yl)amino)methyl)pyrimidin-2-yl)-N-hydroxyacrylamide formate]	1.85	74.2	13.6	4.35	6.15	0.88	9.03

Continued, values first:

IC50 (pan-HDAC) [nM]	IC50 (LSD1) [nM]	IC50 (NCI-H69 cells) [nM]	IC50 (NCI-H526 cells) [nM]	IC50 (NCI-H1417 cells) [nM]	IC50 (HDAC1) [nM]	IC50 (HDAC8) [nM]	Compound
1.39	1.03	9.38	12.3	1.99	1.58	25.3	N#Cc1ccc(-c2c(-c3ccc(N4CCOCC4)c(O)c3)cnc(N3CCC(NCc4ccc(/C=C/C(=O)NO)cc4)CC3)c2C#N)cc1F [Example 203, (E)-3-(4-(((1-(3-Cyano-4-(4-cyano-3-fluorophenyl)-5-(3-hydroxy-4-morpholinophenyl)pyridin-2-yl)piperidin-4-yl)amino)methyl)phenyl-N-hydroxyacrylamide formate]
4.37	1.91	25.2	39.2	6.86	3.08	100	CC(C)(O)COc1ccc(-c2cnc(N3CCC(NCc4ccc(/C=C/C(=O)NO)cn4)CC3)c(C#N)c2-c2ccc(C#N)c(F)c2)cc1O [Example 205, (E)-3-(6-(((1-(3-Cyano-4-(4-cyano-3-fluorophenyl)-5-(3-hydroxy-4-(2-hydroxy-2-methylpropoxy)phenyl)pyridin-2-yl)piperidin-4-yl)amino)methyl)pyridin-3-yl)-N-hydroxyacrylamide formate]
11.5	2.03	94.7	106	6.21	32.9	32.5	COc1ccc(-c2cnc(N3CCC(C)(NCc4cnc(/C=C/C(=O)NO)nc4)CC3)c(C#N)c2-c2ccc(C#N)c(F)c2)cc1O [Example 206, (E)-3-(5-(((1-(3-Cyano-4-(4-cyano-3-fluorophenyl)-5-(3-hydroxy-4-methoxyphenyl)pyridin-2-yl)-4-methylpiperidin-4-yl)amino)methyl)pyrimidin-2-yl)-N-hydroxyacrylamide formate]
12.4	6.65	33.6	26.6	9.5	2.51	170	Cc1c(N2CCC(NCc3ccc(/C=C/C(=O)NO)cc3)CC2)ncc(-c2ccc(OCC(C)(C)O)c(O)c2)c1-c1ccc(C#N)c(F)c1 [Example 207, (E)-3-(4-(((1-(4-(4-Cyano-3-fluorophenyl)-5-(3-hydroxy-4-(2-hydroxy-2-methylpropoxy)phenyl)-3-methylpyridin-2-yl)piperidin-4-yl)amino)methyl)phenyl)-N-hydroxyacrylamide hydrochloride]
1.13	0.73	4.62	3.82	2.2	1.74	17.2	COc1ccc(-c2cnc(N3CCC(NCc4ccc(/C=C/C(=O)NO)cc4)CC3)c(C#N)c2-c2ccc(C#N)nc2)cc1O [Example 208, (E)-3-(4-(((1-(3′,6-Dicyano-5′-(3-hydroxy-4-methoxyphenyl)-[3,4′-bipyridin]-2′-yl)piperidin-4-yl)amino)methyl)phenyl)-N-hydroxyacrylamide]
